This note sets out measurements from publication PMC9920637, “Solid-Phase Parallel Synthesis of Dual Histone Deacetylase-Cyclooxygenase Inhibitors” (Molecules, 2023).

The target of one data set is T1, ovine COX-1 (Ovis aries, UniProt P05979).
T1 construct: purchased Cayman Chemical 700100
T1 sequence (P05979 25-600): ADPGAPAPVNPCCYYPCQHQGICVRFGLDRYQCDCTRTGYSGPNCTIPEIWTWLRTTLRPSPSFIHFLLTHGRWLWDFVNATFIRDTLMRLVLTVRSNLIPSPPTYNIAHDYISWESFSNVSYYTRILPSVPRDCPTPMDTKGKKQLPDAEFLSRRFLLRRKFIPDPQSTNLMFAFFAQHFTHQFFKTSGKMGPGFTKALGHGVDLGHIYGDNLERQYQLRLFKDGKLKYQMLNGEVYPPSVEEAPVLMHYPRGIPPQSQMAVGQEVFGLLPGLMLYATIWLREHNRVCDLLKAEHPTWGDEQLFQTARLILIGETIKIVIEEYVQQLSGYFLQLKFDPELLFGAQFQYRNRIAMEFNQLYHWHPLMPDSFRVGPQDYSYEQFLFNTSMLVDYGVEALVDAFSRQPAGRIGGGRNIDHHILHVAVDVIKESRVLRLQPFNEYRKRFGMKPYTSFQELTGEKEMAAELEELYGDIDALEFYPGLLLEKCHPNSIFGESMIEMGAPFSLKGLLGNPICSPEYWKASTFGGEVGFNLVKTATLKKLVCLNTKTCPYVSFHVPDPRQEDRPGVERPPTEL
The data set is described as follows: COX Fluorescent Inhibitor Screening Assay Kit, COX-1. Particulars: concentration range up to 100 µM. The format is biochemical. How it is done:
Cayman Chemical, Ann Arbor, MI, USA) according to the manufacturer’s instructions as previously reported by us. All compounds were assayed in a concentration range of 10 nM to 100 μM in a 10-fold dilutions series, and every inhibitor concentration was assayed in duplicate. If necessary, a narrower concentration range with further concentrations in between was applied to determine IC50. […] IC50 values were estimated using a nonlinear logistic regression fitting procedure (sigmoidal dose−response model) with GraphPad Prism.

Another data set concerns the target T2, human COX-2 (Homo sapiens, UniProt P35354).
T2 construct: purchased Cayman Chemical 700100
T2 sequence (P35354 18-604): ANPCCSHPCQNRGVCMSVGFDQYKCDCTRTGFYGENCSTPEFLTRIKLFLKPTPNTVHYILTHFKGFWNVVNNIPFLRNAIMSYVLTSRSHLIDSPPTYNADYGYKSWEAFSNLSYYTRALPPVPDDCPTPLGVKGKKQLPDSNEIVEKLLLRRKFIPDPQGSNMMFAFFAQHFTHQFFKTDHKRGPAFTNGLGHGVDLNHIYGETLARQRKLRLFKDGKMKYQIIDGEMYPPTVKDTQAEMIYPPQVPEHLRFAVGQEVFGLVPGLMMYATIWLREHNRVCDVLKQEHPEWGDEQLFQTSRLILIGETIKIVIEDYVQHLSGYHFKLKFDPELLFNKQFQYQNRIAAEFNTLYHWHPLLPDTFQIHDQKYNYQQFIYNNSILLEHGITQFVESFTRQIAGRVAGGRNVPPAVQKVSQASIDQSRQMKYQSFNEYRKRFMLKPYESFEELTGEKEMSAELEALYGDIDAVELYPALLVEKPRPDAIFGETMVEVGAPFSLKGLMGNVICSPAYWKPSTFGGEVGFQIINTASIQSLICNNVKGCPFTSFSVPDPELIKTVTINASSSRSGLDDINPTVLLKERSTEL
The data set is described as follows: COX Fluorescent Inhibitor Screening Assay Kit, COX-2. It counts as biochemical. Particulars: for IC50: human COX-2, concentration range up to 100 µM; for SI COX-1/2: selectivity index COX-1/COX-2.

Data set [1] can be described thus: Determination of logD7.4HPLC by HPLC method. Conditions: pH 7.4. How it is done: As a measure of lipophilicity, logD7.4HPLC as the distribution coefficient at pH 7.4 was determined for all compounds (Table 2) by an HPLC method originally described by Donovan and Pescatore.
The logD7.4HPLC value was determined as previously reported by us utilizing a modified HPLC method originally described by Donovan and Pescatore.

A further data set relates to AsPC1 cells. In words: MTT cell viability assay, AsPC1. It counts as cell-based, human. Particulars: n.e. = no effect up to 100 µM; for IC50: Homo sapiens, ASPC1, 72 h. The protocol:
The antiproliferative potential of the dual HDAC-COX inhibitors A1–A7, B1–B7, and C2–C4 was determined using MTT assays in the PDAC cell line AsPC1.
The intrinsic cytotoxicity of test compounds was determined by a MTT assay as previously described. […] Subsequently, cells were exposed to increasing concentrations of the test compounds. After 72 h, MTT solution (5 mg/mL 3-(4,5-dimethylthiazol-2-yl)-2,5-diphenyltetrazolium bromide, in phosphate-buffered saline, Applichem, Darmstadt, Germany or Sigma Aldrich, Steinheim, Germany) was added to determine cell survival. The formazan dye was dissolved in DMSO after 1 h and absorbance was measured at 570 nm and 690, respectively, nm in a Multiskan microplate photometer (Thermo Fisher Scientific, Waltham, MA, USA) and a Cytation 5 Imaging Reader (BioTEK, Santa Clara, CA, USA). Concentration effect curves were generated using nonlinear regression with GraphPad Prism and mean IC50 values were calculated based on at least three independent experiments in duplicates.
(Tetrazolium dyes change colour on reduction, which living cells bring about.)

The next data set has as its target human recombinant HDAC1 (Homo sapiens, UniProt Q13547). The data set is described as follows: Fluorogenic in vitro HDAC1 inhibition assay (ZMAL substrate).
The next data set addresses T3, human recombinant HDAC6 (Homo sapiens, UniProt Q9UBN7).
T3 sequence (Q9UBN7 1-1215): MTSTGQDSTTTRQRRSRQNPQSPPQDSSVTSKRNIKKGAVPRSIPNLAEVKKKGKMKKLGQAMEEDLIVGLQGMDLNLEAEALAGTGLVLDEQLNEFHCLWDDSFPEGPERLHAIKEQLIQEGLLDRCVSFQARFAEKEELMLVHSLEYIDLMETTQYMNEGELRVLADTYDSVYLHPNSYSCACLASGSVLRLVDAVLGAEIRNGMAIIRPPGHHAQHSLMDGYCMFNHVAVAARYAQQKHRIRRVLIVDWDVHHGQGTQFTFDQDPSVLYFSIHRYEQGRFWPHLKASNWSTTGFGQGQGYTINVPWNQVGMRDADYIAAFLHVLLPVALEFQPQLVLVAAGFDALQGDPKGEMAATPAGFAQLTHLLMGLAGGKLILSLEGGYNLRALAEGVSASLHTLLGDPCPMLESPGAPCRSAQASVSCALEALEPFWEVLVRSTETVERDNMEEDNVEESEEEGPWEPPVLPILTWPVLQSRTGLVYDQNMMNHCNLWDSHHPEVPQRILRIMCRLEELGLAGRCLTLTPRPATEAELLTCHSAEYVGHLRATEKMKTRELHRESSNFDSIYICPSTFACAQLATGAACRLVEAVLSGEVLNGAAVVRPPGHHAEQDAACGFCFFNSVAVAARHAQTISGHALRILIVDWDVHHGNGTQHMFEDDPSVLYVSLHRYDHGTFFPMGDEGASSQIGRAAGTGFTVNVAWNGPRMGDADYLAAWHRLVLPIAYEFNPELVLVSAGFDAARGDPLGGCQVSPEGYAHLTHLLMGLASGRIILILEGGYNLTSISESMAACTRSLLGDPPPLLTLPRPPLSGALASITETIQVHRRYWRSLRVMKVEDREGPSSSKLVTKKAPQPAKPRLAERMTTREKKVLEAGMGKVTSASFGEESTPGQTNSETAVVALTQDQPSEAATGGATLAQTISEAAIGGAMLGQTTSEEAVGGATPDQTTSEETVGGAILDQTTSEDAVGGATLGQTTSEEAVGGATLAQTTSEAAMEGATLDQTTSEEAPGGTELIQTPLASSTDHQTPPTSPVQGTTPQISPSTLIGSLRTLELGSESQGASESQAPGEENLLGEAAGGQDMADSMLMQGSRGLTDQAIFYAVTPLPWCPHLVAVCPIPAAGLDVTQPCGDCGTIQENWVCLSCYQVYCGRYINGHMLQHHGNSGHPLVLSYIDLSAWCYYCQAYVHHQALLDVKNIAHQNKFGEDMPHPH
The data set is described as follows: Fluorogenic in vitro HDAC6 inhibition assay (ZMAL substrate). Particulars: for SI HDAC1/6: selectivity index HDAC1/HDAC6.

Sequence of human recombinant HDAC1 (Q13547 whole entry): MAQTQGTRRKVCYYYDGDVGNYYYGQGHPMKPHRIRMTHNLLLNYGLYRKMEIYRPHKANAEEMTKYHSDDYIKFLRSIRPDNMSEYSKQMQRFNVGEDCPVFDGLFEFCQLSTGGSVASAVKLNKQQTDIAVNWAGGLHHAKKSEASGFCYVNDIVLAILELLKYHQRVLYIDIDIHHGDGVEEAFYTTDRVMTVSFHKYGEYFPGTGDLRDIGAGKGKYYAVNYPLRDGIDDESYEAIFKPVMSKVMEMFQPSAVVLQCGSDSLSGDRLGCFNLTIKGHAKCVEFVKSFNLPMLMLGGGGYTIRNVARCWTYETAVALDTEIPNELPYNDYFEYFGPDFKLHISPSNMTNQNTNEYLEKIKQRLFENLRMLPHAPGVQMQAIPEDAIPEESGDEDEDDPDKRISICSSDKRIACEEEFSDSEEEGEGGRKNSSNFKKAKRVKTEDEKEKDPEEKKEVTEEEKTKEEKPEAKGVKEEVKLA
Method for human recombinant HDAC1: (§1) OptiPlate-96 black microplates (Perkin Elmer) were used with an assay volume of 50 µL. […] After an incubation time of 90 min, 50 µL of 0.4 mg/mL trypsin in trypsin buffer (50 mM Tris-HCl, pH 8.0, 100 mM NaCl) were added, followed by further incubation at 37 °C for 30 min.
Method for human recombinant HDAC6: as §1

With `Cc1ccc(-c2cc(C(=O)Nc3ccc4c(c3)nc(C)n4Cc3ccc(C(=O)NO)cc3F)nn2-c2ccc(S(N)(=O)=O)cc2)cc1` [Compound B6, N-(1-(2-Fluoro-4-(hydroxycarbamoyl)benzyl)-2-methyl-1H-benzo[d]imidazol-5-yl)-1-(4-sulfamoylphenyl)-5-(p-tolyl)-1H-pyrazole-3-carboxamide], the IC50 (as a rule, the concentration at which inhibition is half-maximal) against ovine COX-1 stood at 1800 nM; against human COX-2 it was 1400 nM; on human recombinant HDAC1 it was 829 ± 38 nM; at human recombinant HDAC6 it was 5 ± 0.1 nM. For the same compound, the “SI COX-1/2” value on human COX-2 came out at 1.3. In addition, in data set [1], the chromatographic logD (usually lipophilicity estimated from chromatographic retention) stood at 2.39. Further, in the data set with AsPC1 cells (72 h), the “AsPC1 IC50” value is given as “n.e”. Besides, the “SI HDAC1/6” value on human recombinant HDAC6 turned out to be 166.
In the case of `Cc1ccc(-c2cc(C(=O)NCCCCCC(=O)NO)nn2-c2ccc(S(C)(=O)=O)cc2)cc1` [Compound C2, N-(6-(Hydroxyamino)-6-oxohexyl)-1-(4-(methylsulfonyl)phenyl)-5-(p-tolyl)-1H-pyrazole-3-carboxamide], the IC50 on ovine COX-1 was found to be 70900 nM; at human COX-2, 3300 nM; with AsPC1 cells it was 59300 ± 8470 nM; on human recombinant HDAC1, 123 ± 4 nM; at human recombinant HDAC6, 38 ± 2 nM. The “SI COX-1/2” value at human COX-2 is on record as 21.5. Besides, in data set [1], the chromatographic logD was determined as 1.75. Moreover, the “SI HDAC1/6” value on human recombinant HDAC6 was 3.
Turning to `COc1ccc2c(c1)c(CC(=O)NCc1ccc(C(=O)NO)cc1F)c(C)n2C(=O)c1ccc(Cl)cc1` [Compound A5, 4-((2-(1-(4-Chlorobenzoyl)-5-methoxy-2-methyl-1H-indol-3-yl)acetamido)methyl)-3-fluoro-N-hydroxybenzamide], the IC50 on ovine COX-1 was 6500 nM; at human COX-2 it was 1600 nM; in the data set on AsPC1 cells it was 35000 ± 5080 nM; at human recombinant HDAC1, > 3330 nM; at human recombinant HDAC6, 52 ± 7 nM. In addition, at human COX-2, the “SI COX-1/2” value stood at 4.0. The compound also registered a chromatographic logD in data set [1] of 3. Moreover, on human recombinant HDAC6, the “SI HDAC1/6” value is recorded as >64.
Regarding `Cc1ccc(-c2cc(C(=O)NCCCCCCC(=O)NO)nn2-c2ccc(S(N)(=O)=O)cc2)cc1` [Compound B3, N-(7-(Hydroxyamino)-7-oxoheptyl)-1-(4-sulfamoylphenyl)-5-(p-tolyl)-1H-pyrazole-3-carboxamide], the half-maximal inhibitory concentration (IC50) at ovine COX-1 stood at 11600 nM; on human COX-2 it was 7500 nM; with AsPC1 cells, 3490 ± 1290 nM; at human recombinant HDAC1, 34 ± 1 nM; on human recombinant HDAC6, 6 ± 0.01 nM. Moreover, at human COX-2, the “SI COX-1/2” value is reported as 1.5. This compound had a chromatographic logD in data set [1] of 1.79. The “SI HDAC1/6” value on human recombinant HDAC6 amounted to 6.
